The results in this text go back to ChEMBL document CHEMBL1165939, “A structure-activity relationship study elucidating the mechanism of sequence-specific collagen recognition by the chaperone HSP47” (Bioorg Med Chem, 2010).

Each structure is given as a SMILES string.

The target in this assay is T1, Serpin H1 (Mus musculus, UniProt P19324).
T1 sequence (P19324 whole entry): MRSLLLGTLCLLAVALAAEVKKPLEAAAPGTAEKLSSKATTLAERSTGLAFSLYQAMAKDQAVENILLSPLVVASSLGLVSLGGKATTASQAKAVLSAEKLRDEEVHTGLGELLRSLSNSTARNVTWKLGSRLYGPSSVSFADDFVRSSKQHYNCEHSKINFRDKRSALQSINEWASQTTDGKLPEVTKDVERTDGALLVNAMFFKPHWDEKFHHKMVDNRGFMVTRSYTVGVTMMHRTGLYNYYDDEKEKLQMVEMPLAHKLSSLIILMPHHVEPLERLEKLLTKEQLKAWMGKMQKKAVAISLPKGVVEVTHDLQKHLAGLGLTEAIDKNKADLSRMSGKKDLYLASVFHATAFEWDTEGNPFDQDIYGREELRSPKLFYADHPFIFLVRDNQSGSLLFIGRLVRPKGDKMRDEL
The experiment in a line: Binding affinity to mouse recombinant HSP47 expressed in Escherichia coli JM109 after 10 mins by surface plasmon resonance assay.

As to `N=C(N)NCCC[C@H](NC(=O)[C@@H]1CCCN1C(=O)CNC(=O)[C@H](CCC(=O)O)NC(=O)[C@@H]1CCCN1C(=O)CNC(=O)[C@@H]1CCCN1C(=O)[C@@H]1CCCN1C(=O)CNC(=O)[C@@H]1C[C@@H](O)CN1C(=O)[C@@H]1CCCN1)C(=O)NCC(=O)N1CCC[C@H]1C(=O)N[C@@H](CCCNC(=N)N)C(=O)NCC(=O)N1CCC[C@H]1C(=O)N1CCC[C@H]1C(=O)NCC(=O)N1CCC[C@H]1C(=O)N1CCC[C@H]1C(=O)NCC(=O)N1CCC[C@H]1C(=O)N1CCC[C@H]1C(=O)NCC(=O)N1CCC[C@H]1C(=O)N1CCC[C@H]1C(=O)NCC(N)=O`, the IC50 is above 100 µM.
